Converted amounts (≈) assume the structure as drawn.
Columns and labels:
Experiment in all cases: Microtitre plate assay, IC90 determination
Format in all cases: cell-based
[1] = tested on: Bacillus subtilis (ATCC43639); settings: 90% inhibitory concentration for bacterial growth, 37° C., resazurin fluorescence, read-out: IC90 (μg/ml) BSU 43639
Procedure: (§1) The bacteria used in this study were grown overnight in flasks containing 100 ml Mueller-Hinton Broth (Becton Dickinson—cat. no. 275730) in sterile de-ionized water, with shaking, at 37° C. Stocks (0.5 ml/tube) were stored at −70° C. until use. Bacteria titrations were performed in microtiter plates and colony forming units (CFUs) were determined. In general, an inoculum level of approximately 100 CFUs was used for susceptibility testing.
(§2) Anti Bacterial Susceptibility Testing: IC90 Determination
(§3) Flat-bottom, sterile 96-well plastic microtiter plates were filled with 180 μl of sterile deionized water, supplemented with 0.25% BSA. Subsequently, stock solutions (7.8×final test concentration) of compounds were added in 45 μl volumes in column 2 Serial five-fold dilutions (45 μl in 180 μl) were made directly in the microtiter plates from column 2 to reach column 11. Untreated control samples with (column 1) and without (column 12) inoculum were included in each microtiter plate. Depending on the bacteria type, approximately 10 to 60 CFU per well of bacteria inoculum (100 TCID50), in a volume of 100 μl in 2.8× Mueller-Hinton broth medium, was added to the rows A to H, except column 12. The same volume of broth medium without inoculum was added to column 12 in row A to H. The cultures were incubated at 37° C. for 24 hours under a normal atmosphere (incubator with open air valve and continuous ventilation). At the end of incubation, one day after inoculation, the bacterial growth was quantitated fluorometrically. Therefore resazurin (0.6 mg/ml) was added in a volume of 20 μl to all wells […], and the plates were re-incubated overnight. A change in colour from blue to pink indicated the growth of bacteria.
(§4) The fluorescence was read in a computer-controlled fluorometer (Cytofluor Biosearch) at an excitation wavelength of 530 nm and an emission wavelength of 590 nm. The % growth inhibition achieved by the compounds was calculated according to standard methods. The IC90 (expressed in μg/ml) was defined as the 90% inhibitory concentration for bacterial growth.

[2] = tested on: Enterococcus faecalis (ATCC29212); settings: 90% inhibitory concentration for bacterial growth, 37° C., resazurin fluorescence, read-out: IC90 (μg/ml) EFA 29212
Procedure: as §1, §2, §3, §4

[3] = tested on: Listeria monocytogenes (ATCC49594); settings: 90% inhibitory concentration for bacterial growth, 37° C., resazurin fluorescence, read-out: IC90 (μg/ml) LMO 49594
Procedure: as §1, §2, §3, §4

[4] = tested on: Pseudomonas aeruginosa (ATCC27853); settings: 90% inhibitory concentration for bacterial growth, 37° C., resazurin fluorescence, read-out: IC90 (μg/ml) PAE 27853
Procedure: as §1, §2, §3, §4

[5] = tested on: Staphylococcus aureus (ATCC25923); settings: 90% inhibitory concentration for bacterial growth, 37° C., resazurin fluorescence, read-out: IC90 (μg/ml) STA 25923
Procedure: as §1, §2, §3, §4

[6] = tested on: Staphylococcus aureus (ATCC29213); settings: 90% inhibitory concentration for bacterial growth, 37° C., resazurin fluorescence, read-out: IC90 (μg/ml) STA 29213
Procedure: as §1, §2, §3, §4

[7] = tested on: Streptococcus pneumoniae (ATCC6305); settings: 90% inhibitory concentration for bacterial growth, 37° C., resazurin fluorescence, read-out: IC90 (μg/ml) SPN 6305
Procedure: as §1, §2, §3, §4

[8] = tested on: Streptococcus pyogens (ATCC8668); settings: 90% inhibitory concentration for bacterial growth, 37° C., resazurin fluorescence, read-out: IC90 (μg/ml) SPY 8668
Procedure: as §1, §2, §3, §4

[9] = tested on: methicilline resistant Staphylococcus aureus (MRSA) (a clinical isolate from the University of Antwerp); settings: 90% inhibitory concentration for bacterial growth, 37° C., resazurin fluorescence, read-out: IC90 (μg/ml) STA RMETHIC
Procedure: as §1, §2, §3, §4

Row | SMILES | IC90 [1] [µg/mL] | IC90 [2] [µg/mL] | IC90 [3] [µg/mL] | IC90 [4] [µg/mL] | IC90 [5] [µg/mL] | IC90 [6] [µg/mL] | IC90 [7] [µg/mL] | IC90 [8] [µg/mL] | IC90 [9] [µg/mL]
1 | COc1nc2cccc(C(O)(CCN(C)C)c3ccccc3)c2cc1-c1ccccc1 (centres unmarked) [Compound 4] | 10.4 (≈ 25.2 µM) | 10.4 (≈ 25.2 µM) | 10.4 (≈ 25.2 µM) | 10.4 (≈ 25.2 µM) | 10.4 (≈ 25.2 µM) | 10.4 (≈ 25.2 µM) | 10.4 (≈ 25.2 µM) | 10.4 (≈ 25.2 µM) | 10.4 (≈ 25.2 µM)
2 | COc1nc2cccc(C(O)(CCN(C)C)c3ccco3)c2cc1-c1ccccc1 (centres unmarked) [Compound 5] | 10.1 (≈ 25.1 µM) | 10.1 (≈ 25.1 µM) | 10.1 (≈ 25.1 µM) | 10.1 (≈ 25.1 µM) | 10.1 (≈ 25.1 µM) | 10.1 (≈ 25.1 µM) | 10.1 (≈ 25.1 µM) | 10.1 (≈ 25.1 µM) | 9 (≈ 22.4 µM)
3 | COc1nc2ccc(C(O)(CCN(C)C)c3cc(F)cc(F)c3)cc2cc1Cc1ccc(C)cc1 (centres unmarked) [Compound 7] | 37.9 (≈ 79.5 µM) | 10.7 (≈ 22.5 µM) | 7.6 (≈ 15.9 µM) | 10.7 (≈ 22.5 µM) | 7.6 (≈ 15.9 µM) | 9.5 (≈ 19.9 µM) | 12 (≈ 25.2 µM) | 12 (≈ 25.2 µM) | 37.9 (≈ 79.5 µM)
4 | COc1cc(-c2ccccc2)c2cc(C(O)(CCN(C)C)c3cc(F)cc(F)c3)ccc2n1 (centres unmarked) [Compound 11] | 11.3 (≈ 25.2 µM) | 11.3 (≈ 25.2 µM) | 11.3 (≈ 25.2 µM) | 11.3 (≈ 25.2 µM) | 11.3 (≈ 25.2 µM) | 11.3 (≈ 25.2 µM) | 11.3 (≈ 25.2 µM) | 9 (≈ 20.1 µM) | 11.3 (≈ 25.2 µM)
5 | COc1nc2c(C(O)(CCN(C)C)c3ccco3)cc(Br)cc2cc1-c1ccccc1 (centres unmarked) [Compound 13] | 12.1 (≈ 25.1 µM) | 12.1 (≈ 25.1 µM) | 12.1 (≈ 25.1 µM) | 12.1 (≈ 25.1 µM) | 12.1 (≈ 25.1 µM) | 12.1 (≈ 25.1 µM) | 10.8 (≈ 22.4 µM) | 12.1 (≈ 25.1 µM) | 12.1 (≈ 25.1 µM)
6 | COc1cc(-c2ccccc2)c2cc(C(O)(CCN(C)C)c3ccccc3)ccc2n1 (centres unmarked) [Compound 14] | 10.4 (≈ 25.2 µM) | 10.4 (≈ 25.2 µM) | 10.4 (≈ 25.2 µM) | 10.4 (≈ 25.2 µM) | 10.4 (≈ 25.2 µM) | 10.4 (≈ 25.2 µM) | 10.4 (≈ 25.2 µM) | 10.4 (≈ 25.2 µM) | 10.4 (≈ 25.2 µM)
7 | COc1cc(-c2ccccc2)c2cc(C(O)(CCN(C)C)c3ccco3)ccc2n1 (centres unmarked) [Compound 15] | 10.1 (≈ 25.1 µM) | 10.1 (≈ 25.1 µM) | 10.1 (≈ 25.1 µM) | 10.1 (≈ 25.1 µM) | 10.1 (≈ 25.1 µM) | 10.1 (≈ 25.1 µM) | 10.1 (≈ 25.1 µM) | 10.1 (≈ 25.1 µM) | 10.1 (≈ 25.1 µM)
8 | COc1cc(-c2ccccc2)c2cc(C(O)(CCN(C)C)c3ccccn3)ccc2n1 (centres unmarked) [Compound 16] | 10.4 (≈ 25.1 µM) | 10.4 (≈ 25.1 µM) | 10.4 (≈ 25.1 µM) | 10.4 (≈ 25.1 µM) | 10.4 (≈ 25.1 µM) | 10.4 (≈ 25.1 µM) | 10.4 (≈ 25.1 µM) | 10.4 (≈ 25.1 µM) | 10.4 (≈ 25.1 µM)
9 | CN(C)CCC(O)(c1cc(F)cc(F)c1)c1ccc2nc(-c3cccnc3)cc(-c3ccccc3)c2c1 (centres unmarked) [Compound 42] | 12.5 (≈ 25.2 µM) | 12.5 (≈ 25.2 µM) | 39.4 (≈ 79.5 µM) | 12.5 (≈ 25.2 µM) | 9.9 (≈ 20 µM) | 39.4 (≈ 79.5 µM) | 12.5 (≈ 25.2 µM) | 12.5 (≈ 25.2 µM) | 49.6 (≈ 100 µM)
10 | CN(C)CCC(O)(c1ccccc1)c1ccc2nc(-c3cccnc3)cc(-c3ccccc3)c2c1 (centres unmarked) [Compound 43] | – | 11.5 (≈ 25 µM) | – | 11.5 (≈ 25 µM) | – | 11.5 (≈ 25 µM) | 11.5 (≈ 25 µM) | 11.5 (≈ 25 µM) | –
11 | CN(C)CCC(O)(c1ccc2nc(-c3cccnc3)cc(-c3ccccc3)c2c1)c1ccco1 (centres unmarked) [Compound 44] | 11.3 (≈ 25.1 µM) | 11.3 (≈ 25.1 µM) | 11.3 (≈ 25.1 µM) | 11.3 (≈ 25.1 µM) | 11.3 (≈ 25.1 µM) | 11.3 (≈ 25.1 µM) | 11.3 (≈ 25.1 µM) | 11.3 (≈ 25.1 µM) | 11.3 (≈ 25.1 µM)
12 | CN(C)CCC(O)(c1ccccc1)c1ccc2nc(N(C)C)cc(-c3ccccc3)c2c1 (centres unmarked) [Compound 47] | 10.7 (≈ 25.1 µM) | 10.7 (≈ 25.1 µM) | 10.7 (≈ 25.1 µM) | 10.7 (≈ 25.1 µM) | 10.7 (≈ 25.1 µM) | 10.7 (≈ 25.1 µM) | 10.7 (≈ 25.1 µM) | 10.7 (≈ 25.1 µM) | 10.7 (≈ 25.1 µM)
13 | COc1nc2c(C(O)(CCN(C)C)c3cccs3)cc(-c3cccnc3)cc2cc1Cc1ccccc1 (centres unmarked) [Compound 67] | 51 (≈ 100 µM) | 51 (≈ 100 µM) | 51 (≈ 100 µM) | 51 (≈ 100 µM) | 51 (≈ 100 µM) | 51 (≈ 100 µM) | 22.8 (≈ 44.7 µM) | 51 (≈ 100 µM) | 51 (≈ 100 µM)
